In brackets after ≈: the same amount, converted by molar mass. Read-outs that look alike come from different tables or passages of the source.
Tests used:
C. albicans = test: Antifungal Activity Assay (broth microtiter MIC), C. albicans; format: cell-based, Candida albicans; conditions: Candida albicans, ATCC90028, 48 h
How it was run: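 CLSI M27-A3 microdilution; RPMI 1640+MOPS; 2.5×10^3 CFU/mL final inoculum; cultures from Sabouraud dextrose agar, 35° C overnight; compound working solution 128 μg/mL from 1 mg/mL DMSO stock; visual MIC at 48 h vs growth control.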

[1] = system: Collectotrichum graminicola (Cg); test: Growth inhibition assay of fungal pathogens, Cg; format: cell-based; conditions: 48 h
How it was run: (§1)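 Pathogen growth in 17% V8 broth is measured by OD600 at 24 and 48 hours, after blank subtraction, in the presence of compound at 50, 10 and 2 ppm or 2, 0.4 and 0.08 ppm. Inhibition in percent comes from 48-hour readings against the DMSO control.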

Diplodia maydis (Dm) = test: Growth inhibition assay of fungal pathogens, Dm; format: cell-based; conditions: Stenocarpella maydis, 48 h
How it was run: as §1

[2] = Table 3b (additional results), ATCC 90028, 3 replicates, MIC recorded at 48 h, read-out: MIC, C. albicans ATCC 90028
[3] = Collectotrichum graminicola, growth inhibition at 48 hours vs 2% DMSO control, read-out: Concentration at 90% Inhibition Cg
[4] = Collectotrichum graminicola, growth inhibition vs 2% DMSO control at 48 hours, read-out: Concentration at 90% Inhibition Cg
[5] = Diplodia maydis, growth inhibition at 48 hours vs 2% DMSO control, read-out: Concentration at 90% Inhibition Dm
[6] = Diplodia maydis, growth inhibition vs 2% DMSO control at 48 hours, read-out: Concentration at 90% Inhibition Dm
[7] = read-out: MIC, C. albicans ATCC 90028, Table 3b (additional results), 3 replicates, MIC recorded at 48 h
[8] = read-out: Concentration at 90% Inhibition Cg, Collectotrichum graminicola, growth inhibition at 48 hours vs 2% DMSO control
[9] = read-out: Concentration at 90% Inhibition Cg, Collectotrichum graminicola, growth inhibition vs 2% DMSO control at 48 hours
[10] = read-out: Concentration at 90% Inhibition Dm, Diplodia maydis, growth inhibition at 48 hours vs 2% DMSO control
[11] = read-out: Concentration at 90% Inhibition Dm, Diplodia maydis, growth inhibition vs 2% DMSO control at 48 hours
[12] = read-out: MIC, C. albicans ATCC 90028, Table 3a, 3 replicates, MIC recorded at 48 h
[13] = Table 3a, ATCC 90028, 3 replicates, MIC recorded at 48 h, read-out: MIC, C. albicans ATCC 90028

SMILES | MIC (C. albicans; [2]) [µg/mL] | IC90 [1, 3] [µg/mL] | IC90 [1, 4] [µg/mL] | IC90 (Diplodia maydis (Dm); [5]) [µg/mL] | IC90 (Diplodia maydis (Dm); [6]) [µg/mL] | MIC (C. albicans; [7]) [µg/mL] | IC90 [1, 8] [µg/mL] | IC90 [1, 9] [µg/mL] | IC90 (Diplodia maydis (Dm); [10]) [µg/mL] | IC90 (Diplodia maydis (Dm); [11]) [µg/mL] | MIC (C. albicans; [12]) [µg/mL] | MIC (C. albicans; [13]) [µg/mL]
COCCCO[C@@H](Cn1c(=O)n(C(C)(C)C(=O)N2CCCC2)c(=O)c2c(C)c(-n3nccn3)sc21)c1cc(F)ccc1OC [Compound I-68, (R)-1-(2-(5-fluoro-2-methoxyphenyl)-2-(3-methoxy-propoxy)ethyl)-5-methyl-3-(2-methyl-1-oxo-1-(pyrrolidin-1-yl)propan-2-yl)-6-(2H-1,2,3-triazol-2-yl)thieno[2,3-d]pyrimidine-2,4(1H,3H)-dione] | 2.01 to 4 (≈ 3.2 to 6.36 µM) | 2 (≈ 3.18 µM) | 2 (≈ 3.18 µM) | 2 (≈ 3.18 µM) | 2 (≈ 3.18 µM) | – | – | – | – | – | – | –
COCCCO[C@@H](Cn1c(=O)n(C(C)(C)C(=O)NC(C)C)c(=O)c2c(C)c(-n3nccn3)sc21)c1cc(F)ccc1OC [Compound I-69, (R)-2-(1-(2-(5-fluoro-2-methoxyphenyl)-2-(3-methoxy-propoxy)ethyl)-5-methyl-2,4-dioxo-6-(2H-1,2,3-triazol-2-yl)-1,4-dihydrothieno[2,3-d]pyrimidin-3(2H)-yl)-N-isopropyl-2-methylpropanamide] | – | – | – | – | – | 1.01 to 2 (≈ 1.64 to 3.24 µM) | 0.4 (≈ 0.649 µM) | 0.4 (≈ 0.649 µM) | 0.08 (≈ 0.13 µM) | 0.08 (≈ 0.13 µM) | – | –
C=CCNC(=O)C(C)(C)n1c(=O)c2c(C)c(-n3nccn3)sc2n(C[C@H](OC2CCOCC2)c2cc(F)ccc2OC)c1=O [Compound I-70, (R)—N-allyl-2-(1-(2-(5-fluoro-2-methoxyphenyl)-2-((tetrahydro-2H-pyran-4-yl)oxy)ethyl)-5-methyl-2,4-dioxo-6-(2H-1,2,3-triazol-2-yl)-1,4-dihydrothieno[2,3-d]pyrimidin-3(2H)-yl)-2-methylpropanamide] | – | – | – | – | – | 0.25 to 1 (≈ 0.399 to 1.6 µM) | 2 (≈ 3.19 µM) | 2 (≈ 3.19 µM) | 2 (≈ 3.19 µM) | 2 (≈ 3.19 µM) | 0.25 to 1 (≈ 0.399 to 1.6 µM) | –
C=CCN(C)C(=O)C(C)(C)n1c(=O)c2c(C)c(-n3nccn3)sc2n(C[C@H](OC2CCOCC2)c2cc(F)ccc2OC)c1=O [Compound I-71, (R)—N-allyl-2-(1-(2-(5-fluoro-2-methoxyphenyl)-2-((tetrahydro-2H-pyran-4-yl)oxy)ethyl)-5-methyl-2,4-dioxo-6-(2H-1,2,3-triazol-2-yl)-1,4-dihydrothieno[2,3-d]pyrimidin-3(2H)-yl)-N,2-dimethylpropanamide] | 0.25 to 1 (≈ 0.39 to 1.56 µM) | 0.08 (≈ 0.125 µM) | 0.08 (≈ 0.125 µM) | 0.4 (≈ 0.624 µM) | 0.4 (≈ 0.624 µM) | – | – | – | – | – | – | 0.25 to 1 (≈ 0.39 to 1.56 µM)
C=CCO[C@@H](Cn1c(=O)n(C(C)(C)C(=O)NC(C)C)c(=O)c2c(C)c(-n3nccn3)sc21)c1cc(F)ccc1OC [Compound I-72, (R)-2-(1-(2-(allyloxy)-2-(5-fluoro-2-methoxyphenyl)ethyl)-5-methyl-2,4-dioxo-6-(2H-1,2,3-triazol-2-yl)-1,4-dihydrothieno[2,3-d]pyrimidin-3(2H)-yl)-N-isopropyl-2-methylpropanamide] | – | – | – | – | – | 1.01 to 2 (≈ 1.73 to 3.42 µM) | 2 (≈ 3.42 µM) | 2 (≈ 3.42 µM) | 2 (≈ 3.42 µM) | 2 (≈ 3.42 µM) | 2.1 to 4 (≈ 3.59 to 6.84 µM) | –
COc1ccc(F)cc1[C@H](Cn1c(=O)n(C(C)(C)C(=O)NC2CC2)c(=O)c2c(C)c(-n3nccn3)sc21)OC(C)C [Compound I-73, (R)—N-cyclopropyl-2-(1-(2-(5-fluoro-2-methoxyphenyl)-2-isopropoxyethyl)-5-methyl-2,4-dioxo-6-(2H-1,2,3-triazol-2-yl)-1,4-dihydrothieno[2,3-d]pyrimidin-3(2H)-yl)-2-methylpropanamide] | 0.25 to 1 (≈ 0.428 to 1.71 µM) | 2 (≈ 3.42 µM) | 2 (≈ 3.42 µM) | 2 (≈ 3.42 µM) | 2 (≈ 3.42 µM) | – | – | – | – | – | – | 0.25 to 1 (≈ 0.428 to 1.71 µM)
COc1ccc(F)cc1[C@H](Cn1c(=O)n(C(C)(C)C(=O)N2CCCC2)c(=O)c2c(C)c(-n3nccn3)sc21)OCCN(C)C [Compound I-75, (R)-1-(2-(2-(dimethylamino)ethoxy)-2-(5-fluoro-2-methoxyphenyl)ethyl)-5-methyl-3-(2-methyl-1-oxo-1-(pyrrolidin-1-yl)propan-2-yl)-6-(2H-1,2,3-triazol-2-yl)thieno[2,3-d]pyrimidine-2,4(1H,3H)-dione] | 2.01 to 4 (≈ 3.2 to 6.37 µM) | > 50 | > 50 | > 50 | > 50 | – | – | – | – | – | – | 2.1 to 4 (≈ 3.35 to 6.37 µM)
COc1ccc(F)cc1[C@H](Cn1c(=O)n(C(C)(C)C(=O)NC(C)C)c(=O)c2c(C)c(-n3nccn3)sc21)OCCN(C)C [Compound I-76, (R)-2-(1-(2-(2-(dimethylamino)ethoxy)-2-(5-fluoro-2-methoxyphenyl)ethyl)-5-methyl-2,4-dioxo-6-(2H-1,2,3-triazol-2-yl)-1,4-dihydro-thieno[2,3-d]pyrimidin-3(2H)-yl)-N-isopropyl-2-methylpropanamide] | – | – | – | – | – | 1.01 to 2 (≈ 1.64 to 3.25 µM) | > 50 | > 50 | > 50 | > 50 | 2.1 to 4 (≈ 3.41 to 6.5 µM) | –
COc1ccc(F)cc1[C@H](Cn1c(=O)n([C@@H](C)C(=O)NC2CCC2)c(=O)c2c(C)c(-n3nccn3)sc21)OCCO [Compound I-77, (S)—N-cyclobutyl-2-(1-((R)-2-(5-fluoro-2-methoxyphenyl)-2-(2-hydroxyethoxy)ethyl)-5-methyl-2,4-dioxo-6-(2H-1,2,3-triazol-2-yl)-1,4-dihydrothieno[2,3-d]pyrimidin-3(2H)-yl)propanamide] | 2.01 to 4 (≈ 3.43 to 6.82 µM) | 2 (≈ 3.41 µM) | 10 (≈ 17 µM) | 2 (≈ 3.41 µM) | 2 (≈ 3.41 µM) | – | – | – | – | – | – | 1.1 to 2 (≈ 1.88 to 3.41 µM)
COc1ccc(F)cc1[C@H](Cn1c(=O)n([C@@H](C)C(=O)N(C)C(C)C)c(=O)c2c(C)c(-n3nccn3)sc21)OCCO [Compound I-78, (S)-2-(1-((R)-2-(5-fluoro-2-methoxyphenyl)-2-(2-hydroxy-ethoxy)ethyl)-5-methyl-2,4-dioxo-6-(2H-1,2,3-triazol-2-yl)-1,4-dihydrothieno[2,3-d]pyrimidin-3(2H)-yl)-N-isopropyl-N-methylpropanamide] | 1.01 to 2 (≈ 1.72 to 3.4 µM) | 0.4 (≈ 0.68 µM) | 0.4 (≈ 0.68 µM) | 2 (≈ 3.4 µM) | 2 (≈ 3.4 µM) | – | – | – | – | – | – | 2.1 to 4 (≈ 3.57 to 6.8 µM)
COCCO[C@@H](Cn1c(=O)n(CC(=O)N2CCCC2)c(=O)c2c(C)c(-n3nccn3)sc21)c1cc(F)ccc1OC [Compound I-79, (R)-1-(2-(5-fluoro-2-methoxyphenyl)-2-(2-methoxy-ethoxy)ethyl)-5-methyl-3-(2-oxo-2-(pyrrolidin-1-yl)ethyl)-6-(2H-1,2,3-tria-zol-2-yl)thieno[2,3-d]pyrimidine-2,4(1H,3H)-dione] | > 4.01 | 2 (≈ 3.41 µM) | 10 (≈ 17 µM) | 2 (≈ 3.41 µM) | 2 (≈ 3.41 µM) | – | – | – | – | – | – | 2.1 to 4 (≈ 3.58 to 6.82 µM)
COCCO[C@@H](Cn1c(=O)n(CC(=O)NC(C)C)c(=O)c2c(C)c(-n3nccn3)sc21)c1cc(F)ccc1OC [Compound I-80, (R)-2-(1-(2-(5-fluoro-2-methoxyphenyl)-2-(2-methoxy-ethoxy)ethyl)-5-methyl-2,4-dioxo-6-(2H-1,2,3-triazol-2-yl)-1,4-dihydro-thieno[2,3-d]pyrimidin-3(2H)-yl)-N-isopropylacetamide] | – | – | – | – | – | > 4.01 | > 50 | > 50 | > 50 | > 50 | 2.1 to 4 (≈ 3.65 to 6.96 µM) | –
COc1ccc(F)cc1[C@H](Cn1c(=O)n(CC(=O)N2CCCC2)c(=O)c2c(C)c(-n3nccn3)sc21)OCCO [Compound I-81, (R)-1-(2-(5-fluoro-2-methoxyphenyl)-2-(2-hydroxy-ethoxy)ethyl)-5-methyl-3-(2-oxo-2-(pyrrolidin-1-yl)ethyl)-6-(2H-1,2,3-triazol-2-yl)thieno[2,3-d]pyrimidine-2,4(1H,3H)-dione] | 2.01 to 4 (≈ 3.51 to 6.99 µM) | 2 (≈ 3.49 µM) | 2 (≈ 3.49 µM) | 2 (≈ 3.49 µM) | 2 (≈ 3.49 µM) | – | – | – | – | – | – | 2.1 to 4 (≈ 3.67 to 6.99 µM)
COc1ccc(F)cc1[C@H](Cn1c(=O)n(CC(=O)NC(C)C)c(=O)c2c(C)c(-n3nccn3)sc21)OCCO [Compound I-82, (R)-2-(1-(2-(5-fluoro-2-methoxyphenyl)-2-(2-hydroxy-ethoxy)ethyl)-5-methyl-2,4-dioxo-6-(2H-1,2,3-triazol-2-yl)-1,4-dihydro-thieno[2,3-d]pyrimidin-3(2H)-yl)-N-isopropylacetamide] | – | – | – | – | – | 2.01 to 4 (≈ 3.59 to 7.14 µM) | 2 (≈ 3.57 µM) | 2 (≈ 3.57 µM) | > 50 | > 50 | 2.1 to 4 (≈ 3.75 to 7.14 µM) | –
COc1ccc(F)cc1[C@H](Cn1c(=O)n([C@H](C)C(=O)NC2CCC2)c(=O)c2c(C)c(-n3nccn3)sc21)OCCO [Compound I-84, (R)—N-cyclobutyl-2-(1-((R)-2-(5-fluoro-2-methoxyphenyl)-2-(2-hydroxyethoxy)ethyl)-5-methyl-2,4-dioxo-6-(2H-1,2,3-triazol-2-yl)-1,4-dihydrothieno[2,3-d]pyrimidin-3(2H)-yl)propanamide] | 2.01 to 4 (≈ 3.43 to 6.82 µM) | 0.08 (≈ 0.136 µM) | 0.08 (≈ 0.136 µM) | 0.4 (≈ 0.682 µM) | 0.4 (≈ 0.682 µM) | – | – | – | – | – | – | 1.1 to 2 (≈ 1.88 to 3.41 µM)

Reference: patent US10800791B2, “Triazole ACC inhibitors and uses thereof” (Gilead Apollo, LLC, priority 2015, dated 2020)
